Assay results reported in patent US20140309210A1, “INDAZOLE COMPOUNDS, COMPOSITIONS AND METHODS OF USE THEREOF” (Genentech, Inc., priority 2011, published 2014).

Each compound was assayed against T1, purified ITK (Invitrogen PV3875) (Homo sapiens, UniProt Q08881) (assay: ITK peptide phosphorylation assay (Caliper LabChip or LCMS)). Conditions: Table 2, Examples 1-140, class symbols.
T1 construct: purchased Invitrogen PV3875
T1 sequence (Q08881 1-620): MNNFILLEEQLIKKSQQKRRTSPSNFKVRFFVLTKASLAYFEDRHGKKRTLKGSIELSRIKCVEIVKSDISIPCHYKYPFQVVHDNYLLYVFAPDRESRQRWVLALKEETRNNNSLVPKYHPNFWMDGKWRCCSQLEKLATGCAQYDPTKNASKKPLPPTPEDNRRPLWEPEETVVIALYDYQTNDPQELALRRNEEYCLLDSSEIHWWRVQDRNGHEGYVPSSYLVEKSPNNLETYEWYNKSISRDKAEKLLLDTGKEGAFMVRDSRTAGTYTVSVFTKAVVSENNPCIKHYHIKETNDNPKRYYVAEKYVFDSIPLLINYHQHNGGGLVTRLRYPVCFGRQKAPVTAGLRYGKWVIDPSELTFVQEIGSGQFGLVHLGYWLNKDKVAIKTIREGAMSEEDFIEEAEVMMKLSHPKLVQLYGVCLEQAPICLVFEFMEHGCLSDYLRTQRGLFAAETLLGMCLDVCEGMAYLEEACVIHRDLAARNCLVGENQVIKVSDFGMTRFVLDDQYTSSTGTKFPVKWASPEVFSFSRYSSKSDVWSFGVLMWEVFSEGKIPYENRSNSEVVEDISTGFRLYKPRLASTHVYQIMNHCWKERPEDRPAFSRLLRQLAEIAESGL
Type: biochemical
Description: The ability of purified ITK (Invitrogen PV3875) to catalyze peptide phosphorylation is monitored using a Caliper LabChip 3000 microfluidic unit (Caliper assay) or by liquid chromatography-mass spectrometry (LCMS) using a Waters Acquity system (LCMS assay). […] Reactions are quenched by the addition of 2,2′,2″,2′″-(ethane-1,2-diyldinitrilo)tetraacetic acid (50 mM final). Non-phosphorylated substrate and phosphorylated product peptides are separated and quantified using a Caliper LabChip 3000 instrument. […] Reactions are quenched by the addition of trichloroacetic acid (5% v/v final). Non-phosphorylated substrate and phosphorylated product peptides are separated by ultra performance LC and detected by a coupled triple quadrupole MS device applying multiple reaction monitoring (MRM) for quantification. The area of the MRM-extracted mass signal is used to assess the inhibition by test compounds. Equilibrium dissociation constant (Ki) values for ITK inhibitors are calculated from plots of activity vs. inhibitor concentration using Morrison's quadratic equation that accounts for the potential of tight binding, and by also applying the conversion factor that accounts for competitive inhibition and the concentration of ATP used in the assay relative to its apparent Michaelis constant (Km,app).

| Ki [nM] | SMILES |
| --- | --- |
| 1 to 100 | NC(=O)c1cccc(Cn2cc(NC(=O)c3n[nH]c4cc(-c5cccnc5)ccc34)cn2)c1 [Example 31, N-[1-[(3-carbamoylphenyl)methyl]pyrazol-4-yl]-6-(3-pyridyl)-1H-indazole-3-carboxamide] |
| 1 to 100 | Nc1cc(Cn2cc(NC(=O)c3n[nH]c4cc(-c5cccnc5)ccc34)cn2)ccn1 [Example 32, N-[1-[(2-amino-4-pyridyl)methyl]pyrazol-4-yl]-6-(3-pyridyl)-1H-indazole-3-carboxamide] |
| 1 to 100 | CNC(=O)c1ccc(Cn2cc(NC(=O)c3n[nH]c4cc(-c5cccnc5)ccc34)cn2)o1 [Example 33, N-[1-[[5-(methylcarbamoyl)-2-furyl]methyl]pyrazol-4-yl]-6-(3-pyridyl)-1H-indazole-3-carboxamide] |
| 1 to 100 | O=C(Nc1cnn(Cc2cscn2)c1)c1n[nH]c2cc(-c3cccnc3)ccc12 [Example 34, 6-(3-pyridyl)-N-[1-(thiazol-4-ylmethyl)pyrazol-4-yl]-1H-indazole-3-carboxamide] |
| 1 to 100 | O=C(O)c1ccc(Cn2cc(NC(=O)c3n[nH]c4cc(-c5cn[nH]c5)ccc34)cn2)o1 [Example 35, 5-(4-{[6-(1H-Pyrazol-4-yl)-1H-indazole-3-carbonyl]-amino}-pyrazol-1-ylmethyl)-furan-2-carboxylic acid] |
| 0.01 to 1 | O=C(Nc1cnn(Cc2cccc(-c3cccnc3)c2)c1)c1n[nH]c2cc(-c3cn[nH]c3)ccc12 [Example 36, 6-(1H-Pyrazol-4-yl)-1H-indazole-3-carboxylic acid [1-(3-pyridin-3-yl-benzyl)-1H-pyrazol-4-yl]-amide] |
| 0.01 to 1 | O=C(Nc1cnn(Cc2cccc(-c3ccncc3)c2)c1)c1n[nH]c2cc(-c3cn[nH]c3)ccc12 [Example 37, 6-(1H-Pyrazol-4-yl)-1H-indazole-3-carboxylic acid [1-(3-pyridin-4-yl-benzyl)-1H-pyrazol-4-yl]-amide] |
| 1 to 100 | O=C(Nc1cnn(Cc2cccc(-c3ccccn3)c2)c1)c1n[nH]c2cc(-c3cn[nH]c3)ccc12 [Example 38, 6-(1H-Pyrazol-4-yl)-1H-indazole-3-carboxylic acid [1-(3-pyridin-2-yl-benzyl)-1H-pyrazol-4-yl]-amide] |
| 0.01 to 1 | CN1CCN(c2cccc(Cn3cc(NC(=O)c4n[nH]c5cc(-c6cn[nH]c6)ccc45)cn3)c2)CC1 [Example 39, N-[1-[[3-(4-methylpiperazin-1-yl)phenyl]methyl]pyrazol-4-yl]-6-(1H-pyrazol-4-yl)-1H-indazole-3-carboxamide] |
| 0.01 to 1 | O=C(Nc1cnn(Cc2cccc(N3CCOCC3)c2)c1)c1n[nH]c2cc(-c3cn[nH]c3)ccc12 [Example 40, N-[1-[(3-morpholinophenyl)methyl]pyrazol-4-yl]-6-(1H-pyrazol-4-yl)-1H-indazole-3-carboxamide] |
| 1 to 100 | O=C(Nc1cnn(Cc2csc(N3CCOCC3)n2)c1)c1n[nH]c2cc(-c3cn[nH]c3)ccc12 [Example 41, N-[1-[(2-morpholinothiazol-4-yl)methyl]pyrazol-4-yl]-6-(1H-pyrazol-4-yl)-1H-indazole-3-carboxamide] |
| 1 to 100 | CN1CCN(c2nc(Cn3cc(NC(=O)c4n[nH]c5cc(-c6cn[nH]c6)ccc45)cn3)cs2)CC1 [Example 42, N-[1-[[2-(4-methylpiperazin-1-yl)thiazol-4-yl]methyl]pyrazol-4-yl]-6-(1H-pyrazol-4-yl)-1H-indazole-3-carboxamide] |
| 1 to 100 | O=C(Nc1cnn(Cc2cscn2)c1)c1n[nH]c2cc(-c3cc[nH]n3)ccc12 [Example 43, 6-(1H-Pyrazol-3-yl)-1H-indazole-3-carboxylic acid (1-thiazol-4-ylmethyl-1H-pyrazol-4-yl)-amide] |
| 1 to 100 | N#Cc1cncc(-c2ccc3c(C(=O)Nc4cnn(Cc5cscn5)c4)n[nH]c3c2)c1 [Example 44, 6-(5-Cyano-pyridin-3-yl)-1H-indazole-3-carboxylic acid (1-thiazol-4-ylmethyl-1H-pyrazol-4-yl)-amide] |
| 1 to 100 | Nc1ccc(-c2ccc3c(C(=O)Nc4cnn(Cc5cscn5)c4)n[nH]c3c2)cn1 [Example 45, 6-(6-Amino-pyridin-3-yl)-1H-indazole-3-carboxylic acid (1-thiazol-4-ylmethyl-1H-pyrazol-4-yl)-amide] |
| 0.01 to 1 | O=C(O)c1cccc(Cn2cc(NC(=O)c3n[nH]c4cc(-c5cn[nH]c5)ccc34)cn2)c1 [Example 46, 3-(4-{[6-(1H-Pyrazol-4-yl)-1H-indazole-3-carbonyl]-amino}-pyrazol-1-ylmethyl)-benzoic acid] |
| 1 to 100 | CC(C)(O)c1cccc(Cn2cc(NC(=O)c3n[nH]c4cc(-c5cn[nH]c5)ccc34)cn2)c1 [Example 47, 6-(1H-Pyrazol-4-yl)-1H-indazole-3-carboxylic acid {1-[3-(1-hydroxy-1-methyl-ethyl)-benzyl]-1H-pyrazol-4-yl}-amide] |

| Ki [nM] | SMILES |
| --- | --- |
| 0.01 to 1 | O=C(Nc1cnn(Cc2cccc(-c3nn[nH]n3)c2)c1)c1n[nH]c2cc(-c3cn[nH]c3)ccc12 [Example 48, 6-(1H-Pyrazol-4-yl)-1H-indazole-3-carboxylic acid {1-[3-(2H-tetrazol-5-yl)-benzyl]-1H-pyrazol-4-yl}-amide] |
| 1 to 100 | O=C(Nc1cnn(Cc2ccncc2)c1)c1n[nH]c2ccccc12 [Example 52, N-(1-(pyridin-4-ylmethyl)-1H-pyrazol-4-yl)-1H-indazole-3-carboxamide] |
| 1 to 100 | Cc1ccc(Cn2cc(NC(=O)c3n[nH]c4ccccc34)cn2)cc1 [Example 53, N-(1-(4-methylbenzyl)-1H-pyrazol-4-yl)-1H-indazole-3-carboxamide] |
| 1 to 100 | O=C(Nc1cnn(Cc2cccnc2)c1)c1n[nH]c2ccccc12 [Example 54, N-(1-(pyridin-3-ylmethyl)-1H-pyrazol-4-yl)-1H-indazole-3-carboxamide] |
| 1 to 100 | Cc1cccc(Cn2cc(NC(=O)c3n[nH]c4ccccc34)cn2)c1 [Example 55, N-(1-(3-methylbenzyl)-1H-pyrazol-4-yl)-1H-indazole-3-carboxamide] |
| 1 to 100 | Cc1ccccc1Cn1cc(NC(=O)c2n[nH]c3ccccc23)cn1 [Example 56, N-(1-(2-methylbenzyl)-1H-pyrazol-4-yl)-1H-indazole-3-carboxamide] |
| 1 to 100 | O=C(Nc1cnn(Cc2cc(Cl)cc(Cl)c2)c1)c1n[nH]c2ccccc12 [Example 57, N-(1-(3,5-dichlorobenzyl)-1H-pyrazol-4-yl)-1H-indazole-3-carboxamide] |
| 1 to 100 | O=C(Nc1cnn(Cc2ccc(Cl)cc2)c1)c1n[nH]c2ccccc12 [Example 58, N-(1-(4-chlorobenzyl)-1H-pyrazol-4-yl)-1H-indazole-3-carboxamide] |
| 1 to 100 | O=C(Nc1cnn(Cc2cccc(C(F)(F)F)c2)c1)c1n[nH]c2ccccc12 [Example 59, N-(1-(3-(trifluoromethyl)benzyl)-1H-pyrazol-4-yl)-1H-indazole-3-carboxamide] |
| > 100 | O=C(Nc1cnn(Cc2ccccc2C(F)(F)F)c1)c1n[nH]c2ccccc12 [Example 60, N-(1-(2-(trifluoromethyl)benzyl)-1H-pyrazol-4-yl)-1H-indazole-3-carboxamide] |
| > 100 | O=C(Nc1cnn(Cc2c(Cl)cccc2Cl)c1)c1n[nH]c2ccccc12 [Example 61, N-(1-(2,6-dichlorobenzyl)-1H-pyrazol-4-yl)-1H-indazole-3-carboxamide] |
| 1 to 100 | O=C(Nc1cnn(Cc2ccc(C(F)(F)F)cc2)c1)c1n[nH]c2ccccc12 [Example 62, N-(1-(4-(trifluoromethyl)benzyl)-1H-pyrazol-4-yl)-1H-indazole-3-carboxamide] |
| 1 to 100 | O=C(Nc1cnn(Cc2cccc(F)c2)c1)c1n[nH]c2ccccc12 [Example 63, N-(1-(3-fluorobenz)-1H-pyrazol-4-yl)-1H-indazole-3-carboxamide] |
| > 100 | COc1ccccc1Cn1cc(NC(=O)c2n[nH]c3ccccc23)cn1 [Example 64, N-(1-(2-methoxybenzyl)-1H-pyrazol-4-yl)-1H-indazole-3-carboxamide] |
| 1 to 100 | O=C(Nc1cnn(Cc2ccccc2F)c1)c1n[nH]c2ccccc12 [Example 65, N-(1-(2-fluorobenzyl)-1H-pyrazol-4-yl)-1H-indazole-3-carboxamide] |
| 1 to 100 | COc1ccc(Cn2cc(NC(=O)c3n[nH]c4ccccc34)cn2)cc1 [Example 66, N-(1-(4-methoxybenzyl)-1H-pyrazol-4-yl)-1H-indazole-3-carboxamide] |

Same assay, conditions: Table 3, specific values for certain examples

| Ki [nM] | SMILES |
| --- | --- |
| 53.2 | O=C(Nc1cnn(Cc2cccnc2)c1)c1n[nH]c2ccccc12 [Example 54, N-(1-(pyridin-3-ylmethyl)-1H-pyrazol-4-yl)-1H-indazole-3-carboxamide] |
| 39.2 | O=C(Nc1cnn(Cc2ccc(Cl)cc2)c1)c1n[nH]c2ccccc12 [Example 58, N-(1-(4-chlorobenzyl)-1H-pyrazol-4-yl)-1H-indazole-3-carboxamide] |
| 37.7 | COc1ccc(Cn2cc(NC(=O)c3n[nH]c4ccccc34)cn2)cc1 [Example 66, N-(1-(4-methoxybenzyl)-1H-pyrazol-4-yl)-1H-indazole-3-carboxamide] |
